Blank lines part the entries; values can stand above or below the compound they belong to.
Assays:
A-431 = assay: Antiproliferative activity against human A-431 cells assessed as reduction in cell viability incubated for 72 hrs by MTT assay; type: functional, cell-based; settings: A-431, 72 h
HCT-8 [1] = assay: Antiproliferative activity against human HCT-8 cells assessed as reduction in cell viability incubated for 72 hrs by MTT assay; type: functional, cell-based; settings: Homo sapiens, HCT-8, 72 h; read-out: IC50
MDA-MB-231 = assay: Antiproliferative activity against human MDA-MB-231 cells assessed as reduction in cell viability incubated for 72 hrs by MTT assay; type: functional, cell-based; settings: MDA-MB-231, 72 h
H22 [2] = assay: Antiproliferative activity against mouse H22 cells assessed as reduction in cell viability incubated for 72 hrs by MTT assay; type: functional, cell-based; settings: H22, 72 h
L02 = assay: Cytotoxicity against human L02 cells assessed as reduction in cell viability incubated for 72 hrs by MTT assay; type: cell-based; settings: L02, 72 h
HepG2 = assay: cells; settings: Homo sapiens, HepG2, 72 h
K562 = assay: cells; settings: Homo sapiens, K562, 72 h
Description: Antiproliferative activity against human K562 cells assessed as reduction in cell viability incubated for 72 hrs by MTT assay

H22 [3] = assay: Antitumor activity against […] xenografted in ICR mouse assessed as reduction of tumor weight at 20 mg/kg/day, iv for 21 days; type: functional; settings: 504 h, time 21 day
Bel-7402 [4] = assay: Antiproliferative activity against human Bel-7402 cells assessed as reduction in cell viability incubated for 72 hrs by MTT assay; type: functional, cell-based; settings: Homo sapiens, Bel-7402, 72 h; read-out: IC50
Bel-7402 [5] = assay: Antiproliferative activity against ADR-resistant human Bel-7402 cells assessed as reduction in cell viability incubated for 72 hrs by MTT assay; type: functional, cell-based; settings: Homo sapiens, Bel-7402, 72 h; read-out: IC50
[6] = Resistant index, ratio of IC50 for ADR-resistant human Bel-7402 cells to IC50 for human Bel-7402 cells; type: functional
HCT-8 [7] = assay: Antiproliferative activity against taxol-resistant human HCT-8 cells assessed as reduction in cell viability incubated for 72 hrs by MTT assay; type: functional, cell-based; settings: Homo sapiens, HCT-8, 72 h; read-out: IC50
[8] = Resistant index, ratio of IC50 for taxol-resistant human HCT-8 cells to IC50 for human HCT-8 cells; type: functional
K562/VCR = assay: Antiproliferative activity against VCR resistant human K562/VCR cells assessed as reduction in cell viability incubated for 72 hrs by MTT assay; type: functional, cell-based; settings: Homo sapiens, K562/VCR, 72 h; read-out: IC50
[9] = Resistant index, ratio of IC50 for VCR resistant human K562 cells to IC50 for human K562 cells; type: functional
[10] = Inhibition of pig brain tubulin polymerisation incubated for 30 mins and measured every 2 mins for 60 mins by spectrophotometric method; type: tissue-based, Sus scrofa
Sus scrofa [11] = species on record: Sus scrofa; assay: Inhibition of [3H]colchicine binding to biotinylated pig brain tubulin at 1 uM incubated for 2 hrs in presence of GTP by competitive scintillation proximity assay; type: tissue-based
Sus scrofa [12] = species on record: Sus scrofa; assay: Inhibition of [3H]colchicine binding to biotinylated pig brain tubulin at 5 uM incubated for 2 hrs in presence of GTP by competitive scintillation proximity assay; type: tissue-based
[13] = Metabolic stability in rat plasma assessed as parent compound remaining at 100 nM measured after 60 mins by HPLC analysis; type: ADME, cell-free; settings: 1 h, 0.1 µM
[14] = Metabolic stability in rat plasma assessed as parent compound remaining at 100 nM measured after 3 hrs by HPLC analysis; type: ADME, cell-free; settings: read-out: Stabilty

- IC50 (A-431): 30 nM
- IC50 (HCT-8 [1]): 30 nM
- IC50 (MDA-MB-231): 29 nM
- IC50 (HepG2): 31 nM
- IC50 (K562): 24 nM
SMILES: COc1ccc(CNC(=O)c2cc(Br)ccc2N2CCOCC2)cc1O
- IC50 (H22 [2]): 24 nM
- IC50 (L02): 108 nM

- IC50 (A-431): 28 nM
- IC50 (HCT-8 [1]): 27 nM
- IC50 (MDA-MB-231): 29 nM
- IC50 (HepG2): 29 nM
- IC50 (K562): 61 nM
SMILES: COc1ccc(N2CCOCC2)c(C(=O)NCc2ccc(OC)c(O)c2)c1
- IC50 (H22 [2]): 32 nM
- IC50 (L02): 52 nM

- IC50 (A-431): 45 nM
- IC50 (HCT-8 [1]): 60 nM
- IC50 (MDA-MB-231): 57 nM
- IC50 (HepG2): 61 nM
- IC50 (K562): 59 nM
SMILES: COc1ccc(CNC(=O)c2cc([N+](=O)[O-])ccc2N2CCOCC2)cc1O
- IC50 (H22 [2]): 50 nM
- IC50 (L02): 116 nM

- IC50 (A-431): 143 nM
SMILES: CCOc1ccc(CNC(=O)c2cc([N+](=O)[O-])ccc2N2CCOCC2)cc1

- IC50 (A-431): 121 nM
SMILES: COc1ccc(CNC(=O)c2cc(O)ccc2N2CCOCC2)cc1O

- IC50 (A-431): 20 nM
- IC50 (HCT-8 [1]): 62 nM
- IC50 (MDA-MB-231): 55 nM
- IC50 (HepG2): 48 nM
- IC50 (K562): 30 nM
SMILES: COc1ccc(CNC(=O)c2ccccc2N2CCOCC2)cc1O
- IC50 (H22 [2]): 49 nM
- IC50 (L02): 105 nM

- IC50 (A-431): 51 nM
SMILES: CCN(CC)c1ccc([N+](=O)[O-])cc1C(=O)NCc1ccc(OC)c(O)c1

- IC50 (A-431): > 1000 nM
SMILES: O=C(NCc1ccncc1)c1cc([N+](=O)[O-])ccc1N1CCOCC1

- IC50 (A-431): > 1000 nM
SMILES: COc1ccc(CNC(=O)c2cc([N+](=O)[O-])ccc2N2CCS(=O)(=O)CC2)cc1O

- IC50 (A-431): > 1000 nM
SMILES: COc1cc(CNC(=O)c2cc([N+](=O)[O-])ccc2N2CCOCC2)cc(OC)c1OC

SMILES: COc1ccc(/C=C\c2cc(OC)c(OC)c(OC)c2)cc1OP(=O)(O)O [FOSBRETABULIN]
- inhibition in vivo at 20 mg/kg/day (H22 [3]): 62.7%

- IC50 (A-431): > 1000 nM
SMILES: O=C(OCc1ccc2[nH]ccc2c1)c1cc([N+](=O)[O-])ccc1N1CCOCC1

- IC50 (A-431): 93 nM
SMILES: COc1ccc(CNC(=O)c2cc([N+](=O)[O-])ccc2N2CCOCC2)cc1F

- IC50 (A-431): 10 nM
- IC50 (HCT-8 [1]): 27 nM
- IC50 (MDA-MB-231): 31 nM
- IC50 (Bel-7402 [4]): 56 nM
- IC50 (Bel-7402 [5]): 268 nM
- IC50 (HCT-8 [7]): 221 nM
- IC50 (K562/VCR): 297 nM
- IC50 [10]: 2990 nM
- inhibition (Sus scrofa [11]): 58%
- inhibition (Sus scrofa [12]): 85.7%
- Stabilty [13]: Stable
- remaining at 3 h, 0.1 µM [14]: 72.6%
- IC50 (HepG2): 33 nM
- IC50 (K562): 10 nM
SMILES: CSc1ccc(COC(=O)c2cc([N+](=O)[O-])ccc2N2CCOCC2)cc1
- IC50 (H22 [2]): 25 nM
- IC50 (L02): 44 nM
- Ratio IC50 [6]: 4.8
- Ratio IC50 [8]: 8.2
- Ratio IC50 [9]: 29.7
- inhibition in vivo at 20 mg/kg/day (H22 [3]): 66.7%

- IC50 (A-431): 97 nM
SMILES: COc1ccc(CNC(=O)c2cc(C(F)(F)F)ccc2N2CCCCC2)cc1O

- IC50 (A-431): > 1000 nM
SMILES: O=C(NCc1ccc(OC(F)(F)F)cc1)c1cc([N+](=O)[O-])ccc1N1CCOCC1

- IC50 (A-431): > 1000 nM
SMILES: COCCNc1ccc([N+](=O)[O-])cc1C(=O)NCc1ccc(OC)c(O)c1

- IC50 (A-431): 154 nM
SMILES: COc1ccc(-c2ccc(N3CCOCC3)c(C(=O)NCc3ccc(OC)c(O)c3)c2)cc1

- IC50 (A-431): 962 nM
SMILES: COc1ccc(CNC(=O)c2cc(NC(=O)c3ccncc3)ccc2N2CCOCC2)cc1O

- IC50 (A-431): 12 nM
- IC50 (HCT-8 [1]): 11 nM
- IC50 (MDA-MB-231): 29 nM
- IC50 (HepG2): 12 nM
- IC50 (K562): 19 nM
SMILES: COc1ccc(CNC(=O)c2cc([N+](=O)[O-])ccc2N2CCCCC2)cc1O
- IC50 (H22 [2]): 25 nM
- IC50 (L02): 120 nM

- IC50 (A-431): 145 nM
SMILES: CN(C)c1ccc(CNC(=O)c2cc([N+](=O)[O-])ccc2N2CCOCC2)cc1

- IC50 (A-431): 215 nM
SMILES: COc1ccc(CNC(=O)c2cc(-c3ccco3)ccc2N2CCOCC2)cc1O

- IC50 (A-431): 224 nM
SMILES: COc1ccc(CNC(=O)c2ccc([N+](=O)[O-])cc2N2CCOCC2)cc1O

- IC50 (A-431): 221 nM
SMILES: CSc1ccc(CNC(=O)c2cc([N+](=O)[O-])ccc2N2CCOCC2)cc1

- IC50 (A-431): 1080 nM
SMILES: COc1ccc(CNC(=O)c2cc(NCc3ccncc3)ccc2N2CCOCC2)cc1O

- IC50 (A-431): > 1000 nM
SMILES: COc1ccc(C(=O)Nc2ccc(N3CCOCC3)c(C(=O)NCc3ccc(OC)c(O)c3)c2)cc1

- IC50 (A-431): 30 nM
- IC50 (HCT-8 [1]): 29 nM
- IC50 (MDA-MB-231): 29 nM
- IC50 (HepG2): 31 nM
- IC50 (K562): 30 nM
SMILES: COc1ccc(CNC(=O)c2ccccc2N2CCCCC2)cc1O
- IC50 (H22 [2]): 29 nM
- IC50 (L02): 97 nM
